Results taken from ChEMBL document CHEMBL4359841, “Late-Stage Functionalization of Platensimycin Leading to Multiple Analogues with Improved Antibacterial Activity in Vitro and in Vivo” (2019).
Calls of active or inactive are those of the source. The rule behind the calls is not given here.

tested on: Staphylococcus aureus; assay: Inhibition of FabB/FabF in methicillin-resistant Staphylococcus aureus assessed as antibacterial activity at 5 ug/disk after 18 hrs by agar disk diffusion method

Structure (SMILES)	antibacterial activity (disk diffusion, qualitative)
C[C@]12C[C@@]34C=C(Sc5ccc(-c6cccc(O)c6)cc5)C(=O)[C@@](C)(CCC(=O)Nc5c(O)ccc(C(=O)O)c5O)[C@@H]3[C@H](C[C@@H]1C4)O2	Active
C[C@]12C[C@@]34C=C(Sc5ccc(-c6ccccc6F)cc5)C(=O)[C@@](C)(CCC(=O)Nc5c(O)ccc(C(=O)O)c5O)[C@@H]3[C@H](C[C@@H]1C4)O2	Active
C[C@]12C[C@@]34C=C(Sc5cccc(-c6ccccc6F)c5)C(=O)[C@@](C)(CCC(=O)Nc5c(O)ccc(C(=O)O)c5O)[C@@H]3[C@H](C[C@@H]1C4)O2	Active
CCCCC#Cc1ccc(SC2=C[C@]34C[C@H]5C[C@H](O[C@@]5(C)C3)[C@H]4[C@](C)(CCC(=O)Nc3c(O)ccc(C(=O)O)c3O)C2=O)cc1	Active
CN(C)C(=O)/C=C/c1cccc(SC2=C[C@]34C[C@H]5C[C@H](O[C@@]5(C)C3)[C@H]4[C@](C)(CCC(=O)Nc3c(O)ccc(C(=O)O)c3O)C2=O)c1	Active
C[C@]12C[C@@]34C=C(Sc5cc(Cl)cc(Cl)c5)C(=O)[C@@](C)(CCC(=O)Nc5c(O)ccc(C(=O)O)c5O)[C@@H]3[C@H](C[C@@H]1C4)O2	Active
CC(C)(C)C#Cc1cccc(SC2=C[C@]34C[C@H]5C[C@H](O[C@@]5(C)C3)[C@H]4[C@](C)(CCC(=O)Nc3c(O)ccc(C(=O)O)c3O)C2=O)c1	Active
COc1ccccc1-c1cccc(SC2=C[C@]34C[C@H]5C[C@H](O[C@@]5(C)C3)[C@H]4[C@](C)(CCC(=O)Nc3c(O)ccc(C(=O)O)c3O)C2=O)c1	Active
C[C@]12C[C@@]34C=C(Sc5c(F)c(F)c(F)c(F)c5F)C(=O)[C@@](C)(CCC(=O)Nc5c(O)ccc(C(=O)O)c5O)[C@@H]3[C@H](C[C@@H]1C4)O2	Active
C[C@]12C[C@@]34C=C(Sc5ccc(Cl)cc5)C(=O)[C@@](C)(CCC(=O)Nc5c(O)ccc(C(=O)O)c5O)[C@@H]3[C@H](C[C@@H]1C4)O2	Active
C[C@]12C[C@@]34C=C(Sc5ccc(/C=C/C(=O)O)cc5)C(=O)[C@@](C)(CCC(=O)Nc5c(O)ccc(C(=O)O)c5O)[C@@H]3[C@H](C[C@@H]1C4)O2	Active
C[C@]12C[C@@]34C=C(Sc5cccc(Cl)c5)C(=O)[C@@](C)(CCC(=O)Nc5c(O)ccc(C(=O)O)c5O)[C@@H]3[C@H](C[C@@H]1C4)O2	Active
C[C@]12C[C@@]34C=C(Sc5cccc(-c6cccc(O)c6)c5)C(=O)[C@@](C)(CCC(=O)Nc5c(O)ccc(C(=O)O)c5O)[C@@H]3[C@H](C[C@@H]1C4)O2	Active
CCCCC#Cc1cccc(SC2=C[C@]34C[C@H]5C[C@H](O[C@@]5(C)C3)[C@H]4[C@](C)(CCC(=O)Nc3c(O)ccc(C(=O)O)c3O)C2=O)c1	Active
C[C@]12C[C@@]34C=C(Sc5ccc(C(=O)O)cc5)C(=O)[C@@](C)(CCC(=O)Nc5c(O)ccc(C(=O)O)c5O)[C@@H]3[C@H](C[C@@H]1C4)O2	Active
C[C@]12C[C@@]34C=C(Sc5cccc(C#CC6CC6)c5)C(=O)[C@@](C)(CCC(=O)Nc5c(O)ccc(C(=O)O)c5O)[C@@H]3[C@H](C[C@@H]1C4)O2	Active
C[C@]12C[C@@]34C=C(Sc5cccc(C#CCN)c5)C(=O)[C@@](C)(CCC(=O)Nc5c(O)ccc(C(=O)O)c5O)[C@@H]3[C@H](C[C@@H]1C4)O2	Active
C[C@]12C[C@@]34C=C(Sc5cccc(Br)c5)C(=O)[C@@](C)(CCC(=O)Nc5c(O)ccc(C(=O)O)c5O)[C@@H]3[C@H](C[C@@H]1C4)O2	Active
C[C@]12C[C@@]34C=C(Sc5cccc(C#Cc6ccc(Cl)cc6)c5)C(=O)[C@@](C)(CCC(=O)Nc5c(O)ccc(C(=O)O)c5O)[C@@H]3[C@H](C[C@@H]1C4)O2	Active
C[C@]12C[C@@]34C=C(Sc5cccc(-c6ccco6)c5)C(=O)[C@@](C)(CCC(=O)Nc5c(O)ccc(C(=O)O)c5O)[C@@H]3[C@H](C[C@@H]1C4)O2	Active
C[C@]12C[C@@]34C=C(Sc5cccc(C#Cc6cccc(N)c6)c5)C(=O)[C@@](C)(CCC(=O)Nc5c(O)ccc(C(=O)O)c5O)[C@@H]3[C@H](C[C@@H]1C4)O2	Active
C[C@]12C[C@@]34C=C(Sc5cccc6ccccc56)C(=O)[C@@](C)(CCC(=O)Nc5c(O)ccc(C(=O)O)c5O)[C@@H]3[C@H](C[C@@H]1C4)O2	Active
C[C@]12C[C@@]34C=C(Sc5ccc(C#Cc6ccccc6)cc5)C(=O)[C@@](C)(CCC(=O)Nc5c(O)ccc(C(=O)O)c5O)[C@@H]3[C@H](C[C@@H]1C4)O2	Active
CCCCCC#Cc1cccc(SC2=C[C@]34C[C@H]5C[C@H](O[C@@]5(C)C3)[C@H]4[C@](C)(CCC(=O)Nc3c(O)ccc(C(=O)O)c3O)C2=O)c1	Active
C[C@]12C[C@@]34C=C(Sc5ccc(C#Cc6ccc(C(=O)O)cc6)cc5)C(=O)[C@@](C)(CCC(=O)Nc5c(O)ccc(C(=O)O)c5O)[C@@H]3[C@H](C[C@@H]1C4)O2	Active

Structure (SMILES)	antibacterial activity (disk diffusion, qualitative)
C[C@]12C[C@@]34C=C(Sc5ccc(N)cc5)C(=O)[C@@](C)(CCC(=O)Nc5c(O)ccc(C(=O)O)c5O)[C@@H]3[C@H](C[C@@H]1C4)O2	Active
CCSC1=C[C@]23C[C@H]4C[C@H](O[C@@]4(C)C2)[C@H]3[C@](C)(CCC(=O)Nc2c(O)ccc(C(=O)O)c2O)C1=O	Active
CC(C)(C)NC(=O)/C=C/c1ccc(SC2=C[C@]34C[C@H]5C[C@H](O[C@@]5(C)C3)[C@H]4[C@](C)(CCC(=O)Nc3c(O)ccc(C(=O)O)c3O)C2=O)cc1	Active
COC(=O)/C=C/c1ccc(SC2=C[C@]34C[C@H]5C[C@H](O[C@@]5(C)C3)[C@H]4[C@](C)(CCC(=O)Nc3c(O)ccc(C(=O)O)c3O)C2=O)cc1	Active
Cc1ccc(SC2=C[C@]34C[C@H]5C[C@H](O[C@@]5(C)C3)[C@H]4[C@](C)(CCC(=O)Nc3c(O)ccc(C(=O)O)c3O)C2=O)c(C)c1	Active
C[C@]12C[C@@]34C=C(Sc5ccc(C#CC6CC6)cc5)C(=O)[C@@](C)(CCC(=O)Nc5c(O)ccc(C(=O)O)c5O)[C@@H]3[C@H](C[C@@H]1C4)O2	Active
C[C@]12C[C@@]34C=C(Sc5cccc(C#Cc6cccc(F)c6)c5)C(=O)[C@@](C)(CCC(=O)Nc5c(O)ccc(C(=O)O)c5O)[C@@H]3[C@H](C[C@@H]1C4)O2	Active
Cc1ccc(C#Cc2cccc(SC3=C[C@]45C[C@H]6C[C@H](O[C@@]6(C)C4)[C@H]5[C@](C)(CCC(=O)Nc4c(O)ccc(C(=O)O)c4O)C3=O)c2)cc1	Active
COc1ccc(C#Cc2cccc(SC3=C[C@]45C[C@H]6C[C@H](O[C@@]6(C)C4)[C@H]5[C@](C)(CCC(=O)Nc4c(O)ccc(C(=O)O)c4O)C3=O)c2)cc1	Active
CCCCc1ccc(SC2=C[C@]34C[C@H]5C[C@H](O[C@@]5(C)C3)[C@H]4[C@](C)(CCC(=O)Nc3c(O)ccc(C(=O)O)c3O)C2=O)cc1	Active
COc1ccccc1-c1ccc(SC2=C[C@]34C[C@H]5C[C@H](O[C@@]5(C)C3)[C@H]4[C@](C)(CCC(=O)Nc3c(O)ccc(C(=O)O)c3O)C2=O)cc1	Active
C[C@]12C[C@@]34C=C(Sc5ccc(C#CC6(O)CCCCC6)cc5)C(=O)[C@@](C)(CCC(=O)Nc5c(O)ccc(C(=O)O)c5O)[C@@H]3[C@H](C[C@@H]1C4)O2	Active
C=CCSC1=C[C@]23C[C@H]4C[C@H](O[C@@]4(C)C2)[C@H]3[C@](C)(CCC(=O)Nc2c(O)ccc(C(=O)O)c2O)C1=O	Active
Cc1occc1SC1=C[C@]23C[C@H]4C[C@H](O[C@@]4(C)C2)[C@H]3[C@](C)(CCC(=O)Nc2c(O)ccc(C(=O)O)c2O)C1=O	Active
C[C@]12C[C@@]34C=C(Sc5cccc(-c6ccc(C=O)cc6)c5)C(=O)[C@@](C)(CCC(=O)Nc5c(O)ccc(C(=O)O)c5O)[C@@H]3[C@H](C[C@@H]1C4)O2	Active
C[C@]12C[C@@]34C=C(Sc5cccc(-c6cccnc6)c5)C(=O)[C@@](C)(CCC(=O)Nc5c(O)ccc(C(=O)O)c5O)[C@@H]3[C@H](C[C@@H]1C4)O2	Active
C[C@]12C[C@@]34C=C(Sc5ccc(-c6ccccc6)cc5)C(=O)[C@@](C)(CCC(=O)Nc5c(O)ccc(C(=O)O)c5O)[C@@H]3[C@H](C[C@@H]1C4)O2	Active
CC(C)(C)SC1=C[C@]23C[C@H]4C[C@H](O[C@@]4(C)C2)[C@H]3[C@](C)(CCC(=O)Nc2c(O)ccc(C(=O)O)c2O)C1=O	Active
C[C@]12C[C@@]34C=C(Sc5ccc(-c6cccnc6)cc5)C(=O)[C@@](C)(CCC(=O)Nc5c(O)ccc(C(=O)O)c5O)[C@@H]3[C@H](C[C@@H]1C4)O2	Active
CCN(CC)CC#Cc1cccc(SC2=C[C@]34C[C@H]5C[C@H](O[C@@]5(C)C3)[C@H]4[C@](C)(CCC(=O)Nc3c(O)ccc(C(=O)O)c3O)C2=O)c1	Active
CCCCc1ccc(C#Cc2cccc(SC3=C[C@]45C[C@H]6C[C@H](O[C@@]6(C)C4)[C@H]5[C@](C)(CCC(=O)Nc4c(O)ccc(C(=O)O)c4O)C3=O)c2)cc1	Active
C[C@]12C[C@@]34C=C(SCc5ccco5)C(=O)[C@@](C)(CCC(=O)Nc5c(O)ccc(C(=O)O)c5O)[C@@H]3[C@H](C[C@@H]1C4)O2	Active
C[C@]12C[C@@]34C=C(Sc5ccc(C#CCN)cc5)C(=O)[C@@](C)(CCC(=O)Nc5c(O)ccc(C(=O)O)c5O)[C@@H]3[C@H](C[C@@H]1C4)O2	Active
C[C@]12C[C@@]34C=C(Sc5ccccc5C(=O)O)C(=O)[C@@](C)(CCC(=O)Nc5c(O)ccc(C(=O)O)c5O)[C@@H]3[C@H](C[C@@H]1C4)O2	Active
